The record followed here is publication PMC3493622 (Organic & biomolecular chemistry, 2012).

Molecules are shown by their SMILES. Where two headings read alike, the source gives them in different places.

Data set [1] in a line: SRB cytotoxicity / cell survival under nitrite assay conditions. In kind it is cell-based, murine. The conditions noted are these: mouse, RAW 264.7 cells.
In data set [2] the test system is NO production (iNOS) in LPS-stimulated RAW 264.7 cells. It counts as cell-based, murine. As to conditions: for nitrite inhibitory activity (in words): tested up to 50 μM; for Nitrite assay % inhibition: screening concentration 50 μM, LPS 1 μg/mL, 20 h.
For data set [3], the system named is NFκB (luciferase reporter in human embryonic kidney cells 293). The experiment in a line: NFκB luciferase assay. The conditions noted are these: for NFκB assay % inhibition: screening concentration 50 μM, TNFα; for NFκB inhibitory activity (in words): at 50 μM. It counts as cell-based.
In the next data set the test system is RAW 264.7 cells. The experiment in a line: SRB cytotoxicity / cell survival under nitrite assay conditions. In kind it is cell-based, murine. The conditions noted are these: for Nitrite assay % survival: 50 μM, cell survival in comparison with vehicle-treated controls, SRB.
The test system of a further data set is HEK293. The experiment in a line: Cell survival in the NFκB assay. In kind it is cell-based, Human. As to conditions: for NFκB assay % survival: 50 μM, cell survival in comparison with vehicle-treated controls.

In data set [1], `CON=Cc1c(-c2ccccc2)[nH]c2ccccc12` [Compound 6a, 2-Phenyl-1H-indole-3-carboxaldehyde O-methyl oxime] had an IC50 at 20 h of 48 ± 5.1 µM.
For `c1ccc(C2Cc3ccccc3N2)cc1` (stereo not drawn) [Compound 3, 2-phenylindoline], the “nitrite inhibitory activity (in words)” value in data set [2] was “essentially inactive”.
For `Cc1ccccc1-c1cc2cc([N+](=O)[O-])ccc2[nH]1` [Compound 10bb, 5-Nitro-2-o-toyl-1H-indole], the “NFκB assay % inhibition” value in data set [3] (6 h) was 60.6±3.2%. Moreover, the “Nitrite assay % survival” value in the data set with RAW 264.7 cells came to 89.2±9.5%. Also, the “Nitrite assay % inhibition” value in data set [2] worked out at 45.9±3.0%. In addition, in the data set with HEK293, the “NFκB assay % survival” value came to 119.2±8.6%.
On to `Cc1ccc(-c2cc3ccccc3[nH]2)cc1` [Compound 10ac, 2-p-Tolyl-1H-indole], for which the “nitrite inhibitory activity (in words)” value in data set [2] is “essentially inactive”.
As for `c1ccc(-c2nc3ccccc3[nH]2)cc1` [Compound 11, 2-phenylbenzimidazole, reference compound], the inhibition at 50 µM in data set [3] (Homo sapiens, 6 h, read-out: NFκB assay % inhibition) turned out to be 73.6 ± 3.1%; in data set [2] (Mus musculus, RAW264.7, 20 h, read-out: Nitrite assay % inhibition) it was 13.8 ± 6.4%. Besides, the IC50 in data set [3] (Homo sapiens, 6 h, read-out: NFκB assay IC50) is 11.2 ± 0.3 µM. Further, the viability at 50 µM in the data set on RAW 264.7 cells (Mus musculus, RAW264.7, 20 h, read-out: Nitrite assay % survival) came out at 97.7 ± 5.6%; in the data set on HEK293 (Homo sapiens, HEK293, read-out: NFκB assay % survival), 86.2 ± 18%.
For `COc1cc(OC)cc(-c2cc3ccccc3[nH]2)c1` [Compound 10ag, 2-(3,5-Dimethoxyphenyl)-1H-indole], in data set [3], the “NFκB inhibitory activity (in words)” value was “inactive”.
`CC(C)(C)OC(=O)n1c(-c2ccccc2)cc2ccccc21` [Compound 2f, N-Boc-2-phenylindole] displayed an IC50 at 20 h in data set [1] of 38.2 ± 5 µM.
In the case of `c1ccc(-c2cc3ccccc3[nH]2)cc1` [Compound 10aa, 2-phenyl-1H-indole], the “Nitrite assay % survival” value with RAW 264.7 cells is 66.7±4.0%. Moreover, in the data set on HEK293, the “NFκB assay % survival” value is listed as 79.8±5.9%.
With `C#CCn1c(-c2ccccc2)cc2ccccc21` [Compound 2d, 2-Phenyl-N-propargylindole], in data set [1], the IC50 at 20 h was 46.8 ± 1.9 µM.
As for `c1ccc(-c2cc3ccccc3[nH]2)cc1` [Compound 1, 2-phenylindole], the “NFκB assay % inhibition” value in data set [3] (6 h, 50 µM) was determined as 72.3±5%. Moreover, the “Nitrite assay % survival” value with RAW 264.7 cells came to 87.3±3.9%. Also, in data set [2] (50 µM), the “Nitrite assay % inhibition” value is on record as 60.4±2.2%. In the data set with HEK293, the “NFκB assay % survival” value is listed as 113.1±2.8%.
For `Cc1ccccc1-c1cc2ccccc2[nH]1` [Compound 10ab, 2-o-Tolyl-1H-indole], the “NFκB inhibitory activity (in words)” value in data set [3] is “inactive”. In addition, in data set [1], the IC50 at 20 h amounted to 32.9 ± 2.5 µM. In addition, in the data set on RAW 264.7 cells (at 9.3 μM (IC80 of nitrite inhibition)), the “cell survival at the IC80 concentration” value was found to be 94.5%. Also, the IC80 in data set [2] (Mus musculus, RAW264.7, read-out: IC80 concentration (nitrite inhibition)) was 9.3 µM.
For the compound `Nc1ccccc1C#Cc1cc(F)cc(F)c1` [10ae′, 2-((3,5-Difluorophenyl)ethynyl)aniline], the IC50 at 20 h in data set [1] amounted to 42.9 ± 5.1 µM.
With `N#Cc1ccc2cc(-c3ccccc3)[nH]c2c1` [Compound 10ea, 6-Carbonitrile-2-phenyl-1H-indole], the “NFκB assay % inhibition” value in data set [3] (6 h) was 50.6±3.8%. The “Nitrite assay % survival” value in the data set with RAW 264.7 cells turned out to be 78.1±3.8%. The “Nitrite assay % inhibition” value in data set [2] came out at 45.6±2.5%. Also, the “NFκB assay % survival” value with HEK293 was 72.4±6.2%.

Usually IC50 stands for the midpoint of a concentration-inhibition curve. The inhibition is the share of the control response that was lost under treatment.
